IC50 and IC50 values data for 15 compounds are collected here from publication PMC10340682, “Preparation and Identification of Peptides with α-Glucosidase Inhibitory Activity from Shiitake Mushroom (Lentinus edodes) Protein” (Foods, 2023).

Experiment [1] addresses T1, α-glucosidase (Saccharomyces cerevisiae, UniProt P53341). Briefly: α-glucosidase inhibition activity (PNPG). The experiment is classed as biochemical. The conditions noted are these: synthetic peptides; enzyme 0.2 U/mL, preincubation 25 °C 10 min, PNPG 5 mmol/L, 30 min 37 °C, 405 nm; mean ± SD, three repetitions. From the text:
Shiitake mushrooms were acquired from a farmers’ market. Neutral protease (50 U/mg), pepsin (1:30,000), alkaline protease (200 U/mg), acid protease (50 U/mg), papain (800 U/mg), and flavor protease (20 U/mg) were purchased from Qiyi Biotechnology (Shanghai, China) Co., Ltd. α-glucosidase (10 U/mg) and 4-nitrophenyl a-D-glucopyranoside (PNPG, 99% purity) were purchased from Sigma-Aldrich (St. Louis, MO, USA). Acetonitrile (HPLC grade, 99.9% purity) was purchased from Fisher Chemical (Hampton, NH, USA). Formic acid (LC-MS grade, 99% purity) was purchased from Thermo Scientific (Waltham, MA, USA). Other reagents were of analytical grade and commercially available.
A quantity of 100 μL α-glucosidase solution (0.2 U/mL) was premixed with 50 μL sample solution in the enzyme label plate, and incubated at 25 °C for 10 min; 50 μL of PNPG (5 mmol/L) solution was added to start reactions, and incubation was continued for another 30 min at 37 °C. The reaction was terminated with 50 μL 0.67 mol/L Na2CO3 solution. The absorbance value was measured at 405 nm using an AMR-100 automatic enzyme label analyzer. The results were calculated using the following formula:Inhibitory rate (%) = ((Acontrol − Asample)/Acontrol) × 100(1)
All experiments had three repetitions. Data are expressed as mean ± standard deviation. Statistical significance (Duncan’s test, p < 0.05) was analyzed by DPS. Response surface data were analyzed using Design-ExpertV8.0.6 software.

The target of experiment [2] is T1, α-glucosidase. The arrangement: method as in 7 sources, ref [4]; doi:10.1016/j.foodchem.2011.05.067; 4. Yu Z. Yin Y. Zhao W. Yu Y. Liu B. Liu J. Chen F. Novel peptides derived from egg white protein inhibiting alpha-glucosidase Food Chem. 2011 129 1376 1382 10.1016/j.foodchem.2011.05.067 ||| ref [25] = [25]; PMID 22953959; doi:10.1016/j.foodchem.2012.06.088; 25. Yu Z. Yin Y. Zhao W. Liu J. Chen F. Anti-diabetic activity peptides from albumin against alpha-glucosidase and alpha-amylase Food Chem. 2012 135 2078 2085 10.1016/j.foodchem.2012.06.088 22953959 ||| ref [10] = [10]; doi:10.1016/j.lwt.2021.113062; 10. Zhao Q. Wei G. Li K. Duan S. Ye R. Huang A. Identification and molecular docking of novel α-glucosidase inhibitory peptides from hydrolysates of Binglangjiang buffalo casein LWT 2022 156 113062 10 ||| ref [27] = [27]; PMID 36240562; doi:10.1016/j.foodchem.2022.134481; 27. Wang X. Deng Y. Xie P. Liu L. Zhang C. Cheng J. Zhang Y. Liu Y. Huang L. Jiang J. Novel bioactive peptides from ginkgo biloba seed protein and evaluation of their alpha-glucosidase inhibition acti ||| ref [43] = [43]; PMID 34920404; doi:10.1016/j.foodchem.2021.131717; 43. Chandrasekaran S. Gonzalez de Mejia E. Optimization, identification, and comparison of peptides from germinated chickpea ( Cicer arietinum ) protein hydrolysates using either papain or ficin and t ||| ... Particulars: cited from earlier work; for IC50 values: from germinated chickpea protein, ref [43].

[3] abbreviates: from Binglangjiang buffalo casein, ref [10], read-out: IC50 values, inhibitory activity of α-glucosidase.
Where [4] appears, read: from ginkgo biloba seed protein, ref [27], read-out: IC50 values, α-glucosidase inhibitory activity.

Read-outs that look alike come from different tables or passages of the source. Residues, ends and D or L forms follow the SMILES beside them.

A word on the IC50: it is the midpoint of a concentration-inhibition curve.

T1 sequence (P53341 whole entry): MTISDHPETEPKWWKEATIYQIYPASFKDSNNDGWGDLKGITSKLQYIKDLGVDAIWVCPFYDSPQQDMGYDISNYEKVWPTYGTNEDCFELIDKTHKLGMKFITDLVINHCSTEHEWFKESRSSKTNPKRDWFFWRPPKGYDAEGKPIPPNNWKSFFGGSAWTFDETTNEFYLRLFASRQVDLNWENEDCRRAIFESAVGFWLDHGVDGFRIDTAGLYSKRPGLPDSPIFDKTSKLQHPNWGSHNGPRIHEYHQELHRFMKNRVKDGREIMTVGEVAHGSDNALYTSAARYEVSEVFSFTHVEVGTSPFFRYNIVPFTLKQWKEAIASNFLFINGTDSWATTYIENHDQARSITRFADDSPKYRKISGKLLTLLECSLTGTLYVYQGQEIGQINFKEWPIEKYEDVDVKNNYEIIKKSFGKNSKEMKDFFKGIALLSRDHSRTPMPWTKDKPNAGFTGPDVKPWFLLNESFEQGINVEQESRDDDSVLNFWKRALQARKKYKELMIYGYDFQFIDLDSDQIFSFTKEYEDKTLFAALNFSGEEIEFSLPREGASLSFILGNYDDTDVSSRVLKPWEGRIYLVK

Compound `CC(C)C[C@H](NC(=O)[C@H](CCCCN)NC(=O)[C@@H]1CCCN1C(=O)[C@H](CCC(=O)O)NC(=O)CNC(=O)[C@@H](N)CCC(=O)O)C(=O)N1CCC[C@H]1C(=O)O` [EGEPKLP] (H-EGEPKLP-OH) gave an IC50 at α-glucosidase [1] of 499 ± 39 µM. The same measure, in the same setting: to `CC(C)C[C@H](NC(=O)[C@H](CC(=O)O)NC(=O)[C@H](CC(=O)O)NC(=O)[C@@H](N)CCCCN)C(=O)N[C@@H](CCCNC(=N)N)C(=O)N[C@@H](CO)C(=O)N1CCC[C@H]1C(=O)O` [KDDLRSP] (H-KDDLRSP-OH) belongs 550 ± 37 µM; to `CC(C)C[C@H](NC(=O)[C@H](CCCCN)NC(=O)CNC(=O)[C@H](Cc1ccc(O)cc1)NC(=O)[C@H](CC(=O)O)NC(=O)[C@@H](N)CC(C)C)C(=O)O` [LDYGKL] (H-LDYGKL-OH), 696 ± 39 µM; to `CC(C)C[C@H](NC(=O)[C@H](CCCCN)NC(=O)[C@H](CC(C)C)NC(=O)[C@H](CCC(=O)O)NC(=O)[C@@H]1CCCN1C(=O)[C@@H](N)[C@@H](C)O)C(=O)O` [TPELKL] (H-TPELKL-OH), 452 ± 36 µM.

As to “FALPQYLK [from Binglangjiang buffalo casein]”, at α-glucosidase [2] (setting [3]), the IC50 is 543 µM. As to GLAR [from germinated chickpea protein], the IC50 values at α-glucosidase [2] is 8700 µg/mL.

Take KLPGF: the half-inhibitory concentration (IC50) on α-glucosidase [2] (from albumin, ref [25], read-out: IC50 of α-glucosidase inhibitory peptide) is 59.5 ± 5.7 µM. Consider “LSMSFPPF [identified from ginkgo biloba seed protein]”, for which the IC50 on α-glucosidase [2] (setting [4]) is 454 ± 32.5 µM.

Consider “MPGPPSD [identified from ginkgo biloba seed protein]”, for which the IC50 on α-glucosidase [2] (setting [4]) is 944 ± 73.1 µM.

“RNAVPITPTLNR [from Binglangjiang buffalo casein]”: the half-maximal inhibitory concentration (IC50) at α-glucosidase [2] (setting [3]) was 504 µM. On to “RVPSLM [identified from egg white protein]”, for which the IC50 on α-glucosidase [2] (identified from egg white protein, ref [4], read-out: IC50 value, α-glucosidase inhibitory activity) is 23.1 µM.

Take “SPGAGKG [from germinated chickpea protein]”: on α-glucosidase [2], the IC50 values was 1800 µg/mL. In the case of “TKVIPYVRYL [from Binglangjiang buffalo casein]”, the concentration for half-maximal inhibition (IC50) at α-glucosidase [2] (setting [3]) is 498 µM. As to “VPKIPPP [identified from ginkgo biloba seed protein]”, the IC50 on α-glucosidase [2] (setting [4]) is 1450 ± 67 µM.

Consider “YLGYLEQLLR [from Binglangjiang buffalo casein]”, for which the IC50 on α-glucosidase [2] (setting [3]) is 470 µM.
